Assay results published in US8003812B2, “C10 cyclopentyl ester substituted taxanes” (priority 2004, dated 2011).
Values joined by “and” are separate entries in the source; they are usually repeats but may differ in a detail not shown here. Identical values can stand only once. Like-named read-outs stand apart in the source and are kept apart here.

Legend:
[1] = test system: DLD-1 (resistant human colon carcinoma); experiment: In vitro cytotoxicity, MTT assay, DLD-1; format: cell-based
[2] = test system: VM46 (resistant variant of human colon carcinoma HCT 116); experiment: In vitro cytotoxicity, cell colony formation assay, VM46; format: cell-based; conditions: 72 h drug incubation
Protocol: (§1) The cells were incubated in a CO2 incubator at 37° C. for 5 h for attachment to the bottom of Petri dishes. The compound of the present invention was made up fresh in medium at ten times the final concentration, and then 0.3 mL of this stock solution was added to the 2.7 mL of medium in the dish. The cells were then incubated with drugs for 72 h at 37° C. At the end of incubation the drug-containing media were decanted, the dishes were rinsed with 4 mL of Hank's Balance Salt Solution (HBSS), 5 mL of fresh medium was added, and the dishes were returned to the incubator for colony formation. The cell colonies were counted using a colony counter after incubation for 7 days. Cell survival was calculated and the values of IC50 (the drug concentration producing 50% inhibition of colony formation) were determined for each tested compound.
Identical assessments were carried out using VM46 (resistant variant of human colon carcinoma HCT 116 obtained from Dr. Li-Xi, M.D, Ph.D., California Pacific Medical Center, CA).

[3] = test system: HT29 (human colon carcinoma) xenograft; conditions: for Efficacy Score = 10*(TWd1−TWdn)/TWd1: single dose IV
Excerpt: Score=10*(TWd1−TWdn)/TWd1, where
TWd1=tumor weight on day 1
(§2) TWDn=lowest tumor weight on day 10 or later
(§3) Thus the best score for complete regression would be 10.

[4] = test system: human pancreatic tumor xenograft Panc-1; conditions: for Efficacy Score = 10*(TWd1−TWdn)/TWd1: single dose IV
Excerpt: [formula] where TTE is expressed in days, endpoint volume is in mm^3, b is the intercept, and m is the slope of the line obtained by linear regression of a log-transformed tumor growth data set. The data set is comprised of the first observation that exceeded the study endpoint volume and the three consecutive observations that immediately preceded the attainment of the endpoint volume. […] Animals classified as TR (treatment-related) deaths or NTRM (non-treatment-related metastasis) deaths are assigned a TTE value equal to the day of death. Animals classified as NTR (non-treatment-related) deaths are excluded from TTE calculations. Treatment efficacy was determined from tumor growth delay (TGD), which is defined as the increase in the median TTE for a treatment group compared to the control group: TGD=T−C, expressed in days, or as a percentage of the median TTE of the control group:
Treatment may cause partial regression (PR) or complete regression (CR) of the tumor in an animal. In a PR response, the tumor volume is 50% or less of its Day 1 volume for three consecutive measurements during the course of the study, and equal to or greater than 13.5 mm^3 for one or more of these three measurements. In a CR response, the tumor volume is less than 13.5 mm^3 for three consecutive measurements during the course of the study. An animal with a CR response at the termination of a study is additionally classified as a long-term tumor-free survivor (LTTFS).
With respect to toxicity, the animals were weighed daily on Days 1-5, then twice weekly until the completion of the study. The mice were examined frequently for overt signs of any adverse, drug-related side effects. […] The log rank test was employed to analyze the significance of the difference between the TTE values of a drug-treated group and the vehicle-treated control group. The log rank test analyzes the data for all animals except the NTR deaths. The two-tailed statistical analyses were conducted at P=0.05. The group median tumor growth curves show the median tumor volume (MTV) as a function of time. When an animal exited the study due to tumor size or TR death, the final tumor volume recorded for the animal was included with the data used to calculate the median volume at subsequent time points. If more than one death occurred in a treatment group, the tumor growth curve for that group was truncated at the time of the second death.
Human Panc-1 pancreatic carcinomas were maintained in athymic nude mice. A tumor fragment (1 mm^3) was implanted s.c. into the right flank of each test mouse. Tumors were monitored twice weekly and then daily as their size approached 200-400 mm^3 with a mean of 250-300 mm^3. On Day 1 of the study, the animals were sorted into groups of six mice, with tumor sizes of 171.5-486.0 mm^3 and group mean tumor sizes of 269.7-275.0 mm^3. Mice were sorted into groups containing six mice each, and treated according to the protocol in Tables 2A and 2B. All treatments were administered intravenously. Control Group 1 mice received the ethanol 5% and Liposyn II 95% vehicle, once on Day 1 (qd×1). […] Dosing volumes were 0.5 ml/20 g body weight for qd×1 dosing regimens and 0.3 mL/20 g body weight for the qod×5 or q4d×4 dosing schedules. Dosing volumes were scaled to the body weight of each animal. The vehicle was given to Group 1 mice in a single dose on Day 1 (qd×1).

Sprague-Dawley rats = experiment: In vivo toxicity assessment in rats, intravenous
Protocol: Toxicity was assessed in 250-300g Sprague-Dawley rats and three rats were used per dose group. Three dose groups of the test compound, (i.e., 3 mg/kg, 9 mg/kg and 12 mg/kg for intravenous administration; 15 mg/kg, 30 mg/kg and 40 mg/kg) and 1 control group constituted a study. Animals were observed and clinical chemistry data collected at days 4 and 10. Rats were euthanized on day 11 and the nerves were excised and fixed upon euthanization for further examination.
Each rat is scored as described below and a final toxicity score that incorporates all parameters is assigned. A dead rat is assigned a score of zero. Most of the parameters contribute a positive value towards a total possible score of 130. For body weight, white blood cell, and platelet decreases, recovery is considered. […] The total score is divided by 13 to put it on a scale from 0 to 10.

[5] = test system: HT29 (human colon carcinoma) xenograft; conditions: for # Death NTR / # Death TR / MDS to 1.0 g ± SEM (n) / Efficacy Score = 10*(TWd1−TWdn)/TWd1: HT29; for # Death NTR / # Death TR: 6 mice; for Efficacy Score = 10*(TWd1−TWdn)/TWd1: best score 10; for Max. % BW Loss; Day: mouse, in vivo, po
Excerpt: Score=10*(TWd1−TWdn)/TWd1, where
TWd1=tumor weight on day 1
as §2, §3

[6] = test system: HCT 116 human colon carcinoma; experiment: In vitro cytotoxicity, cell colony formation assay, HCT116; format: cell-based; conditions: 72 h drug incubation
Protocol: as §1

[7] = Group 5: 120 mg/kg IV QD × 1 in 5% E-95% I-20, 6 mice
[8] = Group 6: 60 mg/kg IV QD × 1 in 5% E-95% I-20, 6 mice
[9] = Group 7: 120 mg/kg IV QD × 1 in 5% ET in Saline, 6 mice
[10] = Group 8: 60 mg/kg IV QD × 1 in 5% ET in Saline, 6 mice
[11] = Group 9: 120 mg/kg IV QD × 1 in 5% EC in Saline, 6 mice
[12] = Group 10: 60 mg/kg IV QD × 1 in 5% EC in Saline, 6 mice
[13] = Group 14: 30 mg/kg IV Q4d × 4 in 5% E-95% I-20, 6 mice
[14] = Group 15: 20 mg/kg IV Q4d × 4 in 5% E-95% I-20, 6 mice
[15] = Group 16: 30 mg/kg IV Q4d × 4 in 5% ET in Saline, 6 mice
[16] = Group 17: 20 mg/kg IV Q4d × 4 in 5% ET in Saline, 6 mice
[17] = Group 18: 30 mg/kg IV Q4d × 4 in 5% EC in Saline, 6 mice
[18] = Group 19: 20 mg/kg IV Q4D × 4 in 5% EC in Saline, 6 mice
[19] = Group 2: 20 mg/kg IV qod × 5, 6 mice
[20] = Group 3: 30 mg/kg IV q4d × 4, 6 mice
[21] = Group 4: 120 mg/kg IV qd × 1, 6 mice
[22] = Group 5: 60 mg/kg IV qd × 5 (Table 2A), 6 mice
[23] = IV, second IV 9091 line (two IV dosage regimens)

For `CC(=O)OC12COC1CC(O)C1(C)C(=O)C(OC(=O)C3CCCC3)C3=C(C)C(OC(=O)C(O)C(NC(=O)OC(C)C)c4cccs4)CC(O)(C(OC(=O)c4ccccc4)C21)C3(C)C` (stereo not shown) [Compound 9091], the IC50 [1] was 1.5 nM, the IC50 [2] was 1.9 nM and 1.87 nM and the “# Death NTR” value [3, 7] was 0. The “# Death TR” value [3, 7] was 0, the “MDS to 1.0 g ± SEM (n)” value ([3]; Group 6: 60 mg/kg IV QD × 1 in 5% E-95% I-20) was 51.9 ± 0.0 and the “# Death NTR” value [3, 8] was 0. For the same compound, the “# Death TR” value [3, 8] was 0, the “# Death NTR” value [3, 9] was 0 and the “# Death TR” value [3, 9] was 5. For the same compound, the “MDS to 1.0 g ± SEM (n)” value ([3]; Group 8: 60 mg/kg IV QD × 1 in 5% ET in Saline) was 51.8±, the “# Death NTR” value [3, 10] was 0 and the “# Death TR” value [3, 10] was 0. The “# Death NTR” value [3, 11] was 0, the “# Death TR” value [3, 11] was 0 and the “MDS to 1.0 g ± SEM (n)” value ([3]; Group 10: 60 mg/kg IV QD × 1 in 5% EC in Saline) was 46.0±. The “# Death NTR” value [3, 12] was 0, the “# Death TR” value [3, 12] was 0 and the “# Death NTR” value [3, 13] was 0. For the same compound, the “# Death TR” value [3, 13] was 0, the “# Death NTR” value [3, 14] was 0 and the “# Death TR” value [3, 14] was 0. For the same compound, the “# Death NTR” value [3, 15] was 0, the “# Death TR” value [3, 15] was 0 and the “# Death NTR” value [3, 16] was 0. For the same compound, the “# Death TR” value [3, 16] was 0, the “# Death NTR” value [3, 17] was 0 and the “# Death TR” value [3, 17] was 0. The “# Death NTR” value [3, 18] was 0, the “# Death TR” value [3, 18] was 0 and the “Efficacy Score = 10*(TWd1−TWdn)/TWd1” value ([3]; Dose 60, best score 10) was 8. For the same compound, the “Efficacy Score = 10*(TWd1−TWdn)/TWd1” value ([3]; Dose 120, best score 10) was 8.7, the “antitumor effectiveness among IV regimens” value ([4]; 30 mg/kg q4d×4 IV regimen) was “most effective” and the “No. of CR” value [4, 19] was 0. The “No. of LTTES” value [4, 19] was 0, the “No. of NTR” value [4, 19] was 0 and the “No. of PR” value [4, 19] was 1. The “No. of TR” value [4, 19] was 5, the “Max % BW Loss; Day” value ([4]; Group 2: 20 mg/kg IV qod × 5, Day 10) was −15.7%; and the “Tumor Burden Median (n), Day 56” value ([4]; Group 2: 20 mg/kg IV qod × 5, n=1) was 108 (1) mm^3. For the same compound, the “Median TTE” value ([4]; Group 2: 20 mg/kg IV qod × 5, not evaluable for efficacy (five TR deaths)) was 10.0 days, the “T − C” value ([4]; Group 3: 30 mg/kg IV q4d × 4) was 40.2 days and the “% TGD” value ([4]; Group 3: 30 mg/kg IV q4d × 4, 30 mg/kg) was 254%. For the same compound, the “No. of CR” value [4, 20] was 1, the “No. of LTTES” value [4, 20] was 1 and the “No. of NTR” value [4, 20] was 0. For the same compound, the “No. of PR” value [4, 20] was 5, the “No. of TR” value [4, 20] was 0 and the “Tumor Burden Median (n), Day 56 (MTV)” value ([4]; Group 3: 30 mg/kg IV q4d × 4, Day 56) was 40 mm^3. The “Tumor Burden Median (n), Day 56 (MTV)” value ([4]; Group 3: 30 mg/kg IV q4d × 4, Day 56, 30 mg/kg) was 40.25 (6) mm^3, the “Median TTE” value ([4]; Group 3: 30 mg/kg IV q4d × 4, endpoint 1200 mg) was 56.0 days and the “T − C” value ([4]; Group 4: 120 mg/kg IV qd × 1) was 40.2 days. For the same compound, the “% TGD” value ([4]; Group 4: 120 mg/kg IV qd × 1, 120 mg/kg) was 254%, the “No. of CR” value [4, 21] was 0 and the “No. of LTTES” value [4, 21] was 0. For the same compound, the “No. of NTR” value [4, 21] was 2, the “No. of PR” value [4, 21] was 6 and the “No. of TR” value [4, 21] was 0. For the same compound, the “Tumor Burden Median (n), Day 56 (MTV)” value ([4]; Group 4: 120 mg/kg IV qd × 1, Day 56, 120 mg/kg) was 58 mm^3 and 57.5 (6) mm^3, the “Median TTE” value ([4]; Group 4: 120 mg/kg IV qd × 1, endpoint 1200 mg) was 56.0 days and the “T − C” value ([4]; Group 5: 60 mg/kg IV qd × 5 (Table 2A)) was 40.2 days. The “% TGD” value ([4]; Group 5: 60 mg/kg IV qd × 5 (Table 2A), 60 mg/kg) was 254%, the “No. of CR” value [4, 22] was 0 and the “No. of LTTES” value [4, 22] was 0. The “No. of NTR” value [4, 22] was 0, the “No. of PR” value [4, 22] was 6 and the “No. of TR” value [4, 22] was 0. The “Tumor Burden Median (n), Day 56 (MTV)” value ([4]; Group 5: 60 mg/kg IV qd × 5 (Table 2A), Day 56, 60 mg/kg) was 126 mm^3 and 126 (6) mm^3, the “Median TTE” value ([4]; Group 5: 60 mg/kg IV qd × 5 (Table 2A), endpoint 1200 mg) was 56.0 days and the end-of-study survivors ([4]; each of 30 mg/kg q4d×4, 120 mg/kg and 60 mg/kg single dose IV, 6 mice per group) was “six”. The “Efficacy Score = 10*(TWd1−TWdn)/TWd1” value ([4]; Dose 60, best score 10) was 7.7, the “Efficacy Score = 10*(TWd1−TWdn)/TWd1” value ([4]; Dose 120, best score 10) was 8.6 and the “Tox Score, Dose 3 mg” value (Sprague-Dawley rats; IV, scale 0 to 10) was 9. The “Tox Score, Dose 3 mg” value (Sprague-Dawley rats; [23]) was 9.5, the “Tox Score, Dose 9 mg” value (Sprague-Dawley rats; IV, scale 0 to 10) was 7.1 and the “Tox Score, Dose 9 mg” value (Sprague-Dawley rats; [23]) was 8.1. For the same compound, the “Tox Score, Dose 12 mg” value (Sprague-Dawley rats; IV, scale 0 to 10) was 7.8, the “Tox Score, Dose 12 mg” value (Sprague-Dawley rats; [23]) was 6.8 and the “Tox Score, Weighted Avg” value (Sprague-Dawley rats; IV, Wt Avg = (Σ(dose × grp score))/24) was 7.7. The “Tox Score, Average” value (Sprague-Dawley rats; IV, average of 3 dose groups) was 7.9, the “Tox Score, Average” value (Sprague-Dawley rats; [23]) was 8.1 and the “Tox Score, Weighted Avg” value (Sprague-Dawley rats; [23]) was 7.6. The “Rat tox score IV (second value in cell)” value (Sprague-Dawley rats; IV, second of two values printed for 9091 (two IV regimens)) was 8, 8, the “Rat tox score IV” value (Sprague-Dawley rats; IV, summary score, scale 0 to 10) was 8, 8 and the “toxicity profile in rats compared with congeners” value (Sprague-Dawley rats; administered intravenously) was “best toxicity profile”. The “# Death NTR” value ([5]; Group 18: 15 mg/kg po q4d × 4) was 0, the “# Death TR” value ([5]; Group 18: 15 mg/kg po q4d × 4) was 0 and the “MDS to 1.0 g ± SEM (n)” value ([5]; Group 18: 15 mg/kg po q4d × 4, n=6) was 24.4 ± 1.4 (6). For the same compound, the “# Death NTR” value ([5]; Group 19: 30 mg/kg po q4d × 4) was 0, the “# Death TR” value ([5]; Group 19: 30 mg/kg po q4d × 4) was 0 and the “MDS to 1.0 g ± SEM (n)” value ([5]; Group 19: 30 mg/kg po q4d × 4, n=1) was 25.6 ± (1). For the same compound, the “# Death NTR” value ([5]; Group 20: 45 mg/kg po q4d × 4) was 0, the “# Death TR” value ([5]; Group 20: 45 mg/kg po q4d × 4) was 0 and the “# Death NTR” value ([5]; Group 21: 60 mg/kg po q4d × 4) was 0. The “# Death TR” value ([5]; Group 21: 60 mg/kg po q4d × 4) was 4, the “Efficacy Score = 10*(TWd1−TWdn)/TWd1” value ([5]; single dose oral 60 mg/kg) was 4.3 and the “Efficacy Score = 10*(TWd1−TWdn)/TWd1” value ([5]; single dose oral 120 mg/kg) was 8.7. For the same compound, the “Max. % BW Loss; Day” value ([5]; 30 mg/kg) was −11.3%;, the “Max. % BW Loss; Day” value ([5]; 45 mg/kg) was −22.6%; and the “Max. % BW Loss; Day” value ([5]; 60 mg/kg) was −28.1%;. For the same compound, the IC50 [6] was 0.6 nM and 0.63 nM.
